Test system: methanogenesis in rumen liquor
Assay: In vitro test for methane production (modified Hohenheim Forage value Test, HFT)
Conditions: reduction in methane produced compared to control, average of two experiments
Procedure: A modified version of the “Hohenheim Forage value Test (HFT)” was used for testing the effect of specific compounds on the rumen functions mimicked by this in-vitro system.
Feed is given into a syringe with a composition of rumen liquor and an appropriate mixture of buffers. The solution is incubated at 39° C. After 8 hours the quantity (and composition) of methane produced is measured and put into a formula for conversion.
The feed stuff is sieved to 1 mm—usually TMR (44% concentrate, 6% hay, 37% maize silage and 13% grass silage)—and weighed exactly into 64 syringes. 4 of these syringes are the substrate controls, which display the gas production without the effect of the tested compounds. 4 other syringes are positive control, in which bromoethane sulfonate has been added to 0.1 mM. When needed, 4 syringes contain a carrier control (if the test compounds need a carrier). The remaining syringes contain the test substances, by groups of 4 syringes.
The components are mixed in a Woulff bottle in following order: • 711 ml water • 0.18 ml trace element solution • 355.5 ml buffer solution • 355.5 ml mass element solution
The completed solution is warmed up to 39° C. followed by the addition of 1.83 ml sodium salt solution and the addition of reduction solution at 36° C. The rumen liquor is added, when the indicator turns colourless.
750 ml of rumen liquor are added to approximately 1,400 ml of medium solution under continued agitation and CO2-gassing.
The diluted rumen fluid (24 ml) is added to the glass syringe. The syringes are then incubated for 8 hours at 39° C. under gentle agitation. After 8 hours, the volume of gas produced is measured, and the percentage of methane in the gas phase is determined by gas chromatography.
The food fermented was artificial TMR (44% concentrate, 6% hay, 37% maize silage and 13% grass silage). The compounds produced as described in examples 3 to 11 were added to the fermentation syringes to a concentration of 1 to 0.1% of dry matter (DM).
The same in vitro assay as described in Example 1 has been performed with a series of molecules, wherein either the amine group has been replaced or, the amine group is not in para position.

[1] = 0.1% DM, artificial TMR feed, 8 hours at 39° C.
[2] = 1% DM, artificial TMR feed, 8 hours at 39° C.
[3] = comparative compounds (Table 3), 1% DM
[4] = 0.25% DM, artificial TMR feed, 8 hours at 39° C.
[5] = 0.5% DM, artificial TMR feed, 8 hours at 39° C.

Structure (SMILES)	effect on methanogenesis (%) [1] [%]	effect on methanogenesis (%) [2] [%]	effect on methanogenesis (%) [3] [%]	effect on methanogenesis (%) [4] [%]	effect on methanogenesis (%) [5] [%]
O=C(O)c1cccc(CNc2ccc([N+](=O)[O-])cc2)c1 [Compound 11, 3-((4-Nitro-phenylamino)-methyl)-benzoic acid]	1	88			
O=C(O)c1ccc(COc2ccc([N+](=O)[O-])cc2)cc1 [Compound D, 4-(4-Nitro-phenoxymethyl)-benzoic acid, reference compound]			6		
CCNc1ccc([N+](=O)[O-])cc1 [Compound 3, Ethyl-(4-nitro-phenyl)-amine]	0	97			
CC(C)Nc1ccc([N+](=O)[O-])cc1 [Compound 6, Isopropyl-(4-nitro-phenyl)-amine]	2	99			
O=[N+]([O-])c1ccc(NCCO)cc1 [Compound 7, 2-(4-Nitro-phenylamino)-ethanol]	6	100			
O=[N+]([O-])c1ccc(N2CCOCC2)cc1 [Compound F, 4-(4-Nitrophenyl)morpholine, reference compound]			8		
O=C(O)c1ccc(C(=O)Nc2ccc([N+](=O)[O-])cc2)cc1 [C, reference compound]			3		
CN(C)c1ccc([N+](=O)[O-])cc1 [Compound 4, Dimethyl-(4-nitro-phenyl)-amine]	0	94			
Cc1ccc([N+](=O)[O-])cc1 [A, reference compound]			8		
O=[N+]([O-])c1ccc(NCc2ccccn2)cc1 [Compound 9, 4-Nitro-N-(Pyridin-2-ylmethyl)aniline]	3	95			
O=C(O)c1ccc(CNc2ccc([N+](=O)[O-])cc2)cc1 [Compound 10, 4-((4-Nitro-phenylamino)-methyl)-benzoic acid]		97		3	21
CNc1ccc([N+](=O)[O-])cc1 [Compound 2, Methyl-(4-nitro-phenyl)-amine]	3	96			
O=[N+]([O-])c1ccc(NCCCO)cc1 [Compound 8, 3-(4-Nitro-phenylamino)-propan-1-ol]	1	100			
Nc1ccc([N+](=O)[O-])cc1 [Compound 1, (4-nitro-phenyl)-amine]	15	100		43	88
Nc1cccc([N+](=O)[O-])c1 [Compound B, 3-Nitro-phenylamine, reference compound]			7		
CCCNc1ccc([N+](=O)[O-])cc1 [Compound 5, (4-Nitro-phenyl)-propyl-amine]	5	100		20	60
